Experiment [1] has as its system BMSC (primary human bone marrow mesenchymal stromal cells). As to the kind of experiment: absolute EC50 for viability; higher = less sensitive.
Experiment [2] shares this test system. As to the kind of experiment: drug sensitivity score (DSS); higher = more sensitive.

As for `O=C(Nc1cccc(Nc2ncc(Br)c(NCCc3cnc[nH]3)n2)c1)N1CCCC1` [BX-912], the “absolute EC50 for viability” value in experiment [1] was determined as 2.17 µM. In addition, the drug sensitivity score in experiment [2] is 6.7.
For `Cc1cc(OCc2nnc(SC3CCCC3)n2-c2cccnc2)ccc1-c1ccc(S(C)(=O)=O)cc1` [NMS-873], in that order: 5.4 µM and 4.1.
Consider `CN1CCN(C2CCN(C(=O)Nc3cc(Oc4ccc(NC(=O)C5(C(=O)Nc6ccc(F)cc6)CC5)c(F)c4)ccn3)CC2)CC1` [Golvatinib], for which the “absolute EC50 for viability” value in experiment [1] is greater than 2.5 µM. In experiment [2], this compound had a drug sensitivity score of 2.7.
For `COc1cc(CCc2cc(NC(=O)c3ccc(N4CC(C)NC(C)C4)cc3)n[nH]2)cc(OC)c1` (centres undefined) [AZD4547], in that order: greater than 1 µM and 1.
For `COc1ncc(-c2ccc3nccc(-c4ccnnc4)c3c2)cc1NS(=O)(=O)c1ccc(F)cc1F` [Omipalisib], in that order: 0.0979 µM and 11.6.
For `C[C@@H]1COCCN1c1cc(C2([S@](C)(=N)=O)CC2)nc(-c2cc[nH]c3nccc2-3)n1` [AZD6738], in that order: greater than 25 µM and 4.6.
Turning to `COc1cc(Nc2ncc3c(n2)-c2ccc(Cl)cc2C(c2c(F)cccc2OC)=NC3)ccc1C(=O)O` [Alisertib], in experiment [1], the “absolute EC50 for viability” value was greater than 10 µM. The drug sensitivity score in experiment [2] was found to be 0.
For `Nc1cc(COc2c(Cl)cc(C[C@H](N)C(=O)O)cc2Cl)c2oc(-c3ccccc3)nc2c1` [JPH203], in that order: greater than 5 µM and 0.
For `CS(=O)(=O)c1ccc(-c2cnc(N)c(C(=O)Nc3ccccc3)n2)cc1` [VE-821], in that order: greater than 10 µM and 0.
For `CNC(=O)CN1CCC(Oc2cc3c(Nc4cccc(Cl)c4F)ncnc3cc2OC)CC1` [Sapitinib], in that order: greater than 1 µM and 0.
Consider `C[C@@H](Nc1cc(F)cc(F)c1)c1cc(C(=O)N(C)C)cc2c(=O)cc(N3CCOCC3)oc12` [AZD-8186], for which, in experiment [1], the “absolute EC50 for viability” value was greater than 1 µM. The same compound had a drug sensitivity score in experiment [2] of 3.9.
In the case of `CCOc1ccccc1-n1c(C(C)N2CCN(C(=O)COc3ccc(Cl)cc3)CC2)nc2ccccc2c1=O` (centres undefined) [Erastin], the “absolute EC50 for viability” value in experiment [1] is greater than 10 µM. For the same compound, the drug sensitivity score in experiment [2] came out at 2.1.
For the compound `COc1cc(Nc2ncc(F)c(Nc3ccc4c(n3)NC(=O)C(C)(C)O4)n2)cc(OC)c1OC` [Tamatinib], the “absolute EC50 for viability” value in experiment [1] is greater than 10 µM. In experiment [2], this compound registered a drug sensitivity score of 4.2.
In the case of `CNC(=O)c1ccccc1Sc1ccc2c(/C=C/c3ccccn3)n[nH]c2c1` [Axitinib], in experiment [1], the “absolute EC50 for viability” value is greater than 10 µM. The drug sensitivity score in experiment [2] stood at 7.9.
With `Cc1ccc(NC(=O)c2ccc(CN3CCN(C)CC3)cc2)cc1Nc1nccc(-c2cccnc2)n1` [Imatinib], in experiment [1], the “absolute EC50 for viability” value was greater than 10 µM. Further, the drug sensitivity score in experiment [2] came out at 5.8.
Take `CCN(c1cc(-c2ccc(CN3CCOCC3)cc2)cc(C(=O)NCc2c(C)cc(C)[nH]c2=O)c1C)C1CCOCC1` [Tazemetostat]: the “absolute EC50 for viability” value in experiment [1] was greater than 10 µM. In experiment [2], this compound showed a drug sensitivity score of 0.
For `COc1nc(N)nc2c1ncn2[C@@H]1O[C@H](CO)[C@@H](O)[C@@H]1O` [Nelarabine], in that order: greater than 10 µM and 0.
For `C[C@]1(c2nc3c(C(N)=O)cccc3[nH]2)CCCN1` [Veliparib], in that order: greater than 10 µM and 0.
For `CCNC(=O)c1noc(-c2cc(C(C)C)c(O)cc2O)c1-c1ccc(CN2CCOCC2)cc1` [Luminespib], in that order: 0.0152 µM and 16.8.
Regarding `Nc1nc2[nH]cc(CCc3ccc(C(=O)N[C@@H](CCC(=O)O)C(=O)O)cc3)c2c(=O)[nH]1` [Pemetrexed], the “absolute EC50 for viability” value in experiment [1] was greater than 10 µM. The compound also came in with a drug sensitivity score in experiment [2] of 0.7.
For `COc1cc2c(cc1OCCCN1CCCC1)N=C(N)C21CCC1` [A-366], in that order: greater than 25 µM and 2.8.
For `CO[C@H](C(=O)[C@@H](O)[C@@H](C)O)[C@@H]1Cc2cc3cc(O[C@H]4C[C@@H](O[C@@H]5C[C@@H](O)[C@H](O)[C@@H](C)O5)[C@H](O)[C@@H](C)O4)c(C)c(O)c3c(O)c2C(=O)[C@H]1O[C@H]1C[C@@H](O[C@@H]2C[C@@H](O)[C@@H](O[C@@H]3C[C@](C)(O)[C@H](O)[C@@H](C)O3)[C@@H](C)O2)[C@H](O)[C@@H](C)O1` [Plicamycin], in that order: greater than 10 µM and 2.1.
For `C=CC(=O)Nc1cc2c(Nc3ccc(F)c(Cl)c3)ncnc2cc1OCCCN1CCOCC1` [Canertinib], in that order: greater than 10 µM and 3.7.
As to `CN1C(=O)N[C@H](Cc2c[nH]c3c(Cl)cccc23)C1=O` [Necrostatin 2], the “absolute EC50 for viability” value in experiment [1] is greater than 10 µM. In experiment [2], this compound displayed a drug sensitivity score of 0.
For `O=C(Nc1cccc(NC(=O)c2cccc(O)c2O)c1)c1cccc(O)c1O` [MST-312], in that order: 1.22 µM and 9.7.
For `CCN(CC)CCOc1ccc(C(=C(Cl)c2ccccc2)c2ccccc2)cc1` [Clomifene], in that order: greater than 10 µM and 0.9.
For `CC(O)c1cc(C(=O)N[C@@H](C)Cn2ccc(-c3ccc(C#N)c(Cl)c3)n2)n[nH]1` (some centres undefined) [ODM-201], in that order: greater than 2.5 µM and 0.
Turning to `CN(C)C(=O)c1ccc(S(=O)(=O)c2ccc(NC(=O)C(C)(O)C(F)(F)F)c(Cl)c2)cc1` (centres undefined) [AZD7545], the “absolute EC50 for viability” value in experiment [1] was greater than 10 µM. The compound also gave a drug sensitivity score in experiment [2] of 0.
For `CN(C)Cc1ccc(S(=O)(=O)n2ccc(/C=C/C(=O)NO)c2)cc1` [Resminostat], in that order: 2.63 µM and 6.
For `CN1CCN(CCOc2cc(OC3CCOCC3)c3c(Nc4c(Cl)ccc5c4OCO5)ncnc3c2)CC1` [Saracatinib], in that order: greater than 10 µM and 5.
Take `Cn1cnc2c(F)c(Nc3ccc(Br)cc3F)c(C(=O)NOCCO)cc21` [Binimetinib]: in experiment [1], the “absolute EC50 for viability” value was greater than 1 µM. The compound also yielded a drug sensitivity score in experiment [2] of 1.9.
For `COc1cc(C(=O)O)ccc1NC(=O)[C@@H]1N[C@@H](CC(C)(C)C)[C@](C#N)(c2ccc(Cl)cc2F)[C@H]1c1cccc(Cl)c1F` [Idasanutlin], in that order: 0.576 µM and 13.3.
For `COc1cccc2c1C(=O)c1c(O)c3c(c(O)c1C2=O)C[C@@](O)(C(C)=O)C[C@@H]3O[C@H]1C[C@H](N)[C@H](O)[C@H](C)O1` [Daunorubicin], in that order: 0.356 µM and 5.6.
For `CC1(C)CCC(c2ccc(Cl)cc2)=C(CN2CCN(c3ccc(C(=O)NS(=O)(=O)c4ccc(N[C@H](CCN5CCOCC5)CSc5ccccc5)c(S(=O)(=O)C(F)(F)F)c4)cc3)CC2)C1` [Navitoclax], in that order: greater than 10 µM and 0.
For the compound `O=C(CCCCCCNC(=O)c1cnc(N(c2ccccc2)c2ccccc2)nc1)NO` [Rocilinostat], the “absolute EC50 for viability” value in experiment [1] is greater than 10 µM. The same compound registered a drug sensitivity score in experiment [2] of 1.8.
As to `CC(C)(O)CC(=O)NCCn1ccc2ncnc(Nc3ccc(Oc4cccc(C(F)(F)F)c4)c(Cl)c3)c21` [TAK-285], the “absolute EC50 for viability” value in experiment [1] is greater than 2.5 µM. The same compound came in with a drug sensitivity score in experiment [2] of 0.4.
For `CN(CC(=O)N(Cc1ccc(C2CCCCC2)cc1)c1ccc(C(=O)O)cc1)S(=O)(=O)c1c(F)c(F)c(F)c(F)c1F` [SH-4-54], in that order: greater than 25 µM and 4.

The record behind these values is the supplement of paper PMC9103864.
